The text below walks through data of article PMC2873993, “Comparative Therapeutic Effects of Velaglucerase Alfa and Imiglucerase in a Gaucher Disease Mouse Model” (PLoS ONE, 2010).

For one data set, the system named is 9 V/null mouse. More on the design: method as in PMID 17509920. The conditions noted are these: cited from earlier work.
The target in another data set is T1, Vela (Homo sapiens, UniProt P04062).
T1 construct: purchased HGT/Shire, Cambridge, MA Lot#FEC06-002
T1 sequence (P04062 40-536): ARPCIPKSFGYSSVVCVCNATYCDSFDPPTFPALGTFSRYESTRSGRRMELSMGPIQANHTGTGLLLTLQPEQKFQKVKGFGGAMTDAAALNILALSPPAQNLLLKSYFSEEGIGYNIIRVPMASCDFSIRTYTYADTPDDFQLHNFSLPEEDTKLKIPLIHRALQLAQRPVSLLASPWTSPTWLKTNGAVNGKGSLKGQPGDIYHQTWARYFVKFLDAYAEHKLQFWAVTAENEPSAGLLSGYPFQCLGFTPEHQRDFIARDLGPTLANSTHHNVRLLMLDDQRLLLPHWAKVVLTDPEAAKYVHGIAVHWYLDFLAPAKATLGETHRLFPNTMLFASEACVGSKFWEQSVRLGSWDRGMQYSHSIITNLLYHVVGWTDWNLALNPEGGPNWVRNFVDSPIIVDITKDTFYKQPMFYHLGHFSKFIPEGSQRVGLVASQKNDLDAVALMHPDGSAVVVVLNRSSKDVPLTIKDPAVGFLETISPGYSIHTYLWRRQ
The data set is described as follows: Inhibition of Vela by active site-directed GCase inhibitors (4MU-Glc substrate). It counts as biochemical. The note with it: 8 pmol enzyme protein; SE ≤20%.

In a further data set the target is T2, Imig (Homo sapiens, UniProt P04062, R534H).
T2 construct: purchased Genzyme, Cambridge, MA Lot#A7021H04; host or cells: CHO cells
T2 sequence (P04062 40-536 R534H): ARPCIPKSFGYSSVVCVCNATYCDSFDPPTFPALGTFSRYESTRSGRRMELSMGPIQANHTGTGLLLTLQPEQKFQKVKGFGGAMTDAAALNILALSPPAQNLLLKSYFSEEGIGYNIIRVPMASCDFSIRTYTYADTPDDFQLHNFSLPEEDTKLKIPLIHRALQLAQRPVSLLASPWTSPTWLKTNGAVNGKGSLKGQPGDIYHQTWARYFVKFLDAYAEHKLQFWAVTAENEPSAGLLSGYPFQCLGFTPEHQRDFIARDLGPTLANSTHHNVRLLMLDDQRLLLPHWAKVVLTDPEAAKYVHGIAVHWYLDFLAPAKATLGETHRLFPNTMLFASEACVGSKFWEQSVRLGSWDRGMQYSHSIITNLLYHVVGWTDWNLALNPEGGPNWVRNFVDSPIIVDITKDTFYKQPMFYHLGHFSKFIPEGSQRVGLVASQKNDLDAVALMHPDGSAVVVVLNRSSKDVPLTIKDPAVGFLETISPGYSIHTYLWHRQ
The data set is described as follows: Inhibition of Imig by active site-directed GCase inhibitors (4MU-Glc substrate). It counts as biochemical. The conditions noted are these: 8 pmol enzyme protein; SE ≤20%.

A further data set has as its system patients. The note with it: Gaucher disease patients; cited from earlier work.

With `CCCCCCCC(=O)N[C@H](CN1CCCC1)[C@H](O)c1ccc2c(c1)OCCO2` [Genz 112638], in the data set on 9 V/null mouse, the “effect on alveolar Gaucher cells” value was “clearance of the alveolar Gaucher cells”.

As usually defined, the IC50 is the concentration that gives 50% inhibition. Read a low IC50 as greater potency. On to `O[C@H]1[C@H](O)[C@@H](O)[C@@H]2O[C@@H]2[C@@H]1O` (racemic) [Conduritol B epoxide], for which the IC50 against Vela was determined as 99.8 µM; on Imig it was 146 µM.

B1: alglucerase (protein, UniProt P04062 40-536, looked up)
Lysosomal acid …: ARPCIPKSFGYSSVVCVCNATYCDSFDPPTFPALGTFSRYESTRSGRRMELSMGPIQANHTGTGLLLTLQPEQKFQKVKGFGGAMTDAAALNILALSPPAQNLLLKSYFSEEGIGYNIIRVPMASCDFSIRTYTYADTPDDFQLHNFSLPEEDTKLKIPLIHRALQLAQRPVSLLASPWTSPTWLKTNGAVNGKGSLKGQPGDIYHQTWARYFVKFLDAYAEHKLQFWAVTAENEPSAGLLSGYPFQCLGFTPEHQRDFIARDLGPTLANSTHHNVRLLMLDDQRLLLPHWAKVVLTDPEAAKYVHGIAVHWYLDFLAPAKATLGETHRLFPNTMLFASEACVGSKFWEQSVRLGSWDRGMQYSHSIITNLLYHVVGWTDWNLALNPEGGPNWVRNFVDSPIIVDITKDTFYKQPMFYHLGHFSKFIPEGSQRVGLVASQKNDLDAVALMHPDGSAVVVVLNRSSKDVPLTIKDPAVGFLETISPGYSIHTYLWRRQ
modifications: mannosyl-terminated glycans
Regarding B1, in the data set with patients, the “patients who developed an IgG antibody response” value was 13–15%.
